How the values were obtained:
[1] = 101.3 kPa, Liquid
[2] = xn = mol fraction of the nth substance listed; conditions: 101.3 kPa, Liquid

Cc1ccc(C)cc1 [1,4-dimethylbenzene]
[1]
Conditions | mass density [kg/m3] | viscosity [mPa·s]
298.15 K | 856.7 | 0.6162
303.15 K | 852.35 | 0.5715
313.15 K | 843.64 | 0.508
323.15 K | 834.9 | 0.4599
333.15 K | 826.09 | 0.4298
343.15 K | 817.17 | 0.3783
353.15 K | 808.22 | 0.3382

Cc1ccc(C)cc1 [1,4-dimethylbenzene] + C1CCCCC1
[2]
Conditions | mass density, 298.15 K [kg/m3] | mass density, 303.15 K [kg/m3] | mass density, 313.15 K [kg/m3] | mass density, 323.15 K [kg/m3] | mass density, 333.15 K [kg/m3] | viscosity, 298.15 K [mPa·s] | viscosity, 303.15 K [mPa·s] | viscosity, 313.15 K [mPa·s] | viscosity, 323.15 K [mPa·s] | viscosity, 333.15 K [mPa·s]
x1 = 0.0809 | 779.58 | 774.92 | 765.5 | 755.99 | 746.36 | 0.8232 | 0.7475 | 0.6401 | 0.5594 | 0.4874
x1 = 0.1655 | 786.02 | 781.39 | 772.07 | 762.67 | 753.14 | 0.757 | 0.6992 | 0.5981 | 0.526 | 0.4646
x1 = 0.2537 | 792.96 | 788.36 | 779.14 | 769.83 | 760.42 | 0.7177 | 0.6524 | 0.5739 | 0.5037 | 0.452
x1 = 0.3457 | 800.58 | 796.02 | 786.88 | 777.65 | 768.33 | 0.6773 | 0.6311 | 0.5481 | 0.4861 | 0.4338
x1 = 0.4422 | 808.68 | 804.15 | 795.1 | 785.98 | 776.74 | 0.6575 | 0.6059 | 0.5313 | 0.4722 | 0.423
x1 = 0.5431 | 817.38 | 812.89 | 803.91 | 794.86 | 785.72 | 0.6326 | 0.5868 | 0.5185 | 0.4638 | 0.4186
x1 = 0.6491 | 826.54 | 822.09 | 813.16 | 804.19 | 795.14 | 0.6219 | 0.5787 | 0.5108 | 0.458 | 0.4131
x1 = 0.7603 | 836.16 | 831.71 | 822.86 | 813.98 | 805 | 0.6175 | 0.5726 | 0.511 | 0.4569 | 0.4109
x1 = 0.8771 | 846.17 | 841.79 | 833 | 824.18 | 815.3 | 0.6139 | 0.5701 | 0.5052 | 0.4567 | 0.4124
x1 = 1 | 856.7 | 852.35 | 843.64 | 834.9 | 826.09 | 0.6162 | 0.5715 | 0.508 | 0.4599 | 0.4298

CN1CCCC1=O [N-methylpyrrolidone]
[1]
Conditions | mass density [kg/m3] | viscosity [mPa·s]
303.15 K | 1023.47 | 1.554
313.15 K | 1014.55 | 1.332
323.15 K | 1005.66 | 1.16
333.15 K | 996.71 | 1.022
343.15 K | 987.75 | 0.9084
353.15 K | 978.76 | 0.8127

CN1CCCC1=O [N-methylpyrrolidone] + Cc1ccc(C)cc1
[2], x2 = 0
Conditions | mass density [kg/m3] | viscosity [mPa·s]
303.15 K | 1023.47 | 1.554
313.15 K | 1014.55 | 1.332
323.15 K | 1005.66 | 1.16
333.15 K | 996.71 | 1.022
343.15 K | 987.75 | 0.9084
353.15 K | 978.76 | 0.8127

C1CCCCC1 [cyclohexane]
[1]
Conditions | mass density [kg/m3] | viscosity [mPa·s]
298.15 K | 773.82 | 0.9027
303.15 K | 769.1 | 0.8205
313.15 K | 759.61 | 0.6963
323.15 K | 749.98 | 0.5984
333.15 K | 740.23 | 0.5195

C1CCCCC1 [cyclohexane] + Cc1ccc(C)cc1
[2], x2 = 0
Conditions | mass density [kg/m3] | viscosity [mPa·s]
298.15 K | 773.82 | 0.9027
303.15 K | 769.1 | 0.8205
313.15 K | 759.61 | 0.6963
323.15 K | 749.98 | 0.5984
333.15 K | 740.23 | 0.5195

CCCCCCC [heptane]
[1]
Conditions | mass density [kg/m3] | viscosity [mPa·s]
298.15 K | 679.9 | 0.4009
303.15 K | 675.65 | 0.375
313.15 K | 667.08 | 0.3373
323.15 K | 658.37 | 0.3074
333.15 K | 649.53 | 0.2793
343.15 K | 640.47 | 0.2541

CCCCCCC [heptane] + Cc1ccc(C)cc1
[2], x2 = 0
Conditions | mass density [kg/m3] | viscosity [mPa·s]
298.15 K | 679.9 | 0.4009
303.15 K | 675.65 | 0.375
313.15 K | 667.08 | 0.3373
323.15 K | 658.37 | 0.3074
333.15 K | 649.53 | 0.2793
343.15 K | 640.47 | 0.2541

CCCCCCCC [octane]
[1]
Conditions | mass density [kg/m3] | viscosity [mPa·s]
298.15 K | 699.9 | 0.5206
303.15 K | 695.72 | 0.4837
313.15 K | 687.5 | 0.4306
323.15 K | 679.37 | 0.3864
333.15 K | 671.02 | 0.3495
343.15 K | 662.54 | 0.3139
353.15 K | 653.8 | 0.284

CCCCCCCC [octane] + Cc1ccc(C)cc1
[2], x2 = 0
Conditions | mass density [kg/m3] | viscosity [mPa·s]
298.15 K | 699.9 | 0.5206
303.15 K | 695.72 | 0.4837
313.15 K | 687.5 | 0.4306
323.15 K | 679.37 | 0.3864
333.15 K | 671.02 | 0.3495
343.15 K | 662.54 | 0.3139
353.15 K | 653.8 | 0.284

Reference: the NIST ThermoML archive (doi:10.1021/je049776w)
